In PMC7732024 (Bioorganic & medicinal chemistry letters, 2012):

What was measured:
[1] = test system: subgenomic HCV 1b replicon; assay: HCV RNA replication in Huh7 cells containing a subgenomic HCV 1b replicon; type: cell-based, HCV genotype 1b; settings: for decrease of activity on introduction of torsion angle in the linker: one range stated for the group of compounds
[2] = test system: HCV; settings: clinical trials, at 24 h following a single dose of 10 mg; cited from earlier work
[3] = test system: HCV; settings: cited from earlier work

Row | Compound | decrease of activity on introduction of torsion angle in the linker ([1]; HCV 1b replicon) | anti-HCV activity (in words) ([1]; HCV 1b replicon) | also measured
1 | COC(=O)N[C@H](C(=O)N1CCC[C@H]1c1ncc(-c2ccc(NS(=O)(=O)c3ccc(-c4cnc([C@@H]5CCCN5C(=O)[C@@H](NC(=O)OC)C(C)C)[nH]4)cc3)cc2)[nH]1)C(C)C [Compound 5c] | 16- to 15,000 fold | – | –
2 | COC(=O)N[C@H](C(=O)N1CCC[C@H]1c1ncc(-c2ccc(-c3ccc(-c4ccc(-c5cnc([C@@H]6CCCN6C(=O)[C@@H](NC(=O)OC)C(C)C)[nH]5)cc4)cc3)cc2)[nH]1)C(C)C [Compound 11a] | – | low picomolar range | therapeutic index CC50/EC50 ([1]; HCV replicon assay): over four million
3 | COC(=O)N[C@H](C(=O)N1CCC[C@H]1c1ncc(-c2ccc(-c3cccc(-c4ccc(-c5cnc([C@@H]6CCCN6C(=O)[C@@H](NC(=O)OC)C(C)C)[nH]5)cc4)c3)cc2)[nH]1)C(C)C [Compound 11c] | 16- to 15,000 fold | – | –
4 | COC(=O)N[C@H](C(=O)N1CCC[C@H]1c1ncc(-c2ccc(-c3cn(-c4ccc(-c5cnc([C@@H]6CCCN6C(=O)[C@@H](NC(=O)OC)C(C)C)[nH]5)cc4)nn3)cc2)[nH]1)C(C)C [Compound 17] | 16- to 15,000 fold | – | –
5 | COC(=O)N[C@H](C(=O)N1CCC[C@H]1c1ncc(-c2ccc(Oc3ccc(-c4cnc([C@@H]5CCCN5C(=O)[C@@H](NC(=O)OC)C(C)C)[nH]4)cc3)cc2)[nH]1)C(C)C [Compound 5b] | 16- to 15,000 fold | – | –
6 | COC(=O)N[C@H](C(=O)N1CCC[C@H]1c1ncc(-c2ccc(-c3ccc(-c4ccc(-c5ccc(-c6cnc([C@@H]7CCCN7C(=O)[C@@H](NC(=O)OC)C(C)C)[nH]6)cc5)cc4)cc3)cc2)[nH]1)C(C)C [Compound 11e] | – | – | loss of activity at the EC50 level compared to BMS-790052 ([1]; HCV 1b replicon): 37 fold
7 | COC(=O)N[C@H](C(=O)N1CCC[C@H]1c1ncc(-c2ccc(-c3ccc(-c4ccc(-c5cnc([C@@H]6CCCN6C(=O)[C@@H](NC(=O)OC)C(C)C)[nH]5)cc4)s3)cc2)[nH]1)C(C)C [Compound 11d] | 16- to 15,000 fold | – | –
8 | COC(=O)N[C@H](C(=O)N1CCC[C@H]1c1ncc(-c2ccc(-c3ccc(-c4cnc([C@@H]5CCCN5C(=O)[C@@H](NC(=O)OC)C(C)C)[nH]4)cc3)cc2)[nH]1)C(C)C [BMS-790052] | – | – | reduction in HCV RNA [2]: over 3 log10 IU/mL; median effective antiviral concentration (EC50) in vitro [3]: picomolar range
9 | COC(=O)N[C@H](C(=O)N1CCC[C@H]1c1ncc(-c2ccc(-c3ccc(-c4cnc([C@@H]5CCCN5C(=O)[C@@H](NC(=O)OC)C(C)C)[nH]4)s3)cc2)[nH]1)C(C)C [Compound 5d] | – | almost complete loss of anti-HCV activity | –
10 | COC(=O)N[C@H](C(=O)N1CCC[C@H]1c1ncc(-c2ccc(-c3ccc(-c4ccc(-c5cnc([C@@H]6CCCN6C(=O)[C@@H](NC(=O)OC)C(C)C)[nH]5)cc4)nc3)cc2)[nH]1)C(C)C [Compound 11b] | – | low picomolar range | –
